Experimental data from ChEMBL document CHEMBL1201862, “PubChem BioAssay data set” (2004).
Active and inactive are the calls of the source.

What was measured:
[1] = target: Paired box protein Pax-8 (Homo sapiens, UniProt Q06710); assay: inhibitors of PAX8-driven TPO luciferase reporter, dose response, RMG-I cells, cherry-pick (AID 687027); format: functional, cell-based;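 note: luciferase reporter driven by Pax8 target thyroperoxidase promoter measured by SteadyGlo luminescence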
[2] = IOSE-T80 ovarian epithelial cell cytotoxicity, dose response, cytotoxicity control for PAX8 inhibitor project, plate reader, dry powder samples (AID 743045); format: functional, cell-based
[3] = NIH:OVCAR-3 ovarian cancer cell cytotoxicity, dose response, PAX8 inhibitor project, plate reader, dry powder samples (AID 743044); format: functional, cell-based
[4] = cytotoxicity in OVCAR8 ovarian cancer cells, dose response, PAX8 project, cell-based, plate reader, dry powder samples (AID 743197); format: functional; details: OVCAR-8
[5] = human group III sPLA2 inhibitors, dose response, biochemical, QFRET, IC50 (AID 743457);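 note: green fluorescence rise as the enzyme cleaves BODIPY PC-A2 in liposomes; potency for inhibition of the enzyme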
[6] = target: COUP transcription factor 2 (Homo sapiens, UniProt P24468); assay: Luminescence-based cell-based high throughput dose response assay to identify inhibitors of COUP-TFII (NR2F2).; format: functional;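 note: HEK293 cells transiently cotransfected with COUP-TFII expression vector and reporter; luciferase reporter luminescence driven by COUP-TFII from the pX2-168 reporter plasmid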
COUP transcription factor 2, sequence (P24468 whole entry): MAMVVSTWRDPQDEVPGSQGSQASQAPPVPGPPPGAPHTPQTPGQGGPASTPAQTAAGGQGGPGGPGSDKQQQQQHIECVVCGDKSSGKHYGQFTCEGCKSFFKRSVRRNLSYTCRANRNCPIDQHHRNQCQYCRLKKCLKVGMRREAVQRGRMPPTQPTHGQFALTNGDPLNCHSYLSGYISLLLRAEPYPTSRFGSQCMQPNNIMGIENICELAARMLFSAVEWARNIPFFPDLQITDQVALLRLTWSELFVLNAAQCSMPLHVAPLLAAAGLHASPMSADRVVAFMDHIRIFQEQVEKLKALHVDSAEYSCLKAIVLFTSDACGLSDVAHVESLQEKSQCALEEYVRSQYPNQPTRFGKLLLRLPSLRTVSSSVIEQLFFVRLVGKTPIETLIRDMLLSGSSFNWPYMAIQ

[7] = Dose-response inhibition of insulin secretion in a rat insulinoma line at 5 mM glucose (AID 1117331); format: functional, cell-based; details: INS-1E
[8] = half-maximal inhibitory concentration for glucagon-like peptide-1 release, STC-1 cell line, dose-response (AID 1117345); format: functional, cell-based
[9] = Glucagon-like peptide 1 release potency, NCI-H716 cell line, dose-response, half-maximal inhibitory concentration (AID 1117344); format: functional, cell-based
[10] = target: Kallikrein-7 (Homo sapiens, UniProt P49862); assay: Fluorescence Intensity-based biochemical primary high throughput dose response assay to identify activators of kallikrein-7 (K7) zymogen.
Kallikrein-7, sequence (P49862 whole entry): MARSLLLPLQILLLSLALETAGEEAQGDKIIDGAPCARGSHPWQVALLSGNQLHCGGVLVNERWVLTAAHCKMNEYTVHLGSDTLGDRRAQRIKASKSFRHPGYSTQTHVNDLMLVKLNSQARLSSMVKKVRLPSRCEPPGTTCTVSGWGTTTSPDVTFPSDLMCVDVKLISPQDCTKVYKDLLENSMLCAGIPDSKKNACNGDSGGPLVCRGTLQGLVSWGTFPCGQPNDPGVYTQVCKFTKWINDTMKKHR

[11] = NIH-3T3 fibroblast cytotoxicity, dose response, cytotoxicity control, cell-based, fluorescence, Alamar Blue, secondary assay (AID 2327); format: functional;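 note: NIH-3T3 mouse fibroblasts cultured with fluconazole at 8 µg/mL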
[12] = C. albicans growth with fluconazole, confirmation, fluorescence, retest (AID 2467); format: functional, cell-based
[13] = target: NS3 (Hepatitis C virus, UniProt A3EZJ3); assay: PubChem AID 2173; set-up: species or system Hepacivirus hominis
NS3, sequence (A3EZJ3 whole entry): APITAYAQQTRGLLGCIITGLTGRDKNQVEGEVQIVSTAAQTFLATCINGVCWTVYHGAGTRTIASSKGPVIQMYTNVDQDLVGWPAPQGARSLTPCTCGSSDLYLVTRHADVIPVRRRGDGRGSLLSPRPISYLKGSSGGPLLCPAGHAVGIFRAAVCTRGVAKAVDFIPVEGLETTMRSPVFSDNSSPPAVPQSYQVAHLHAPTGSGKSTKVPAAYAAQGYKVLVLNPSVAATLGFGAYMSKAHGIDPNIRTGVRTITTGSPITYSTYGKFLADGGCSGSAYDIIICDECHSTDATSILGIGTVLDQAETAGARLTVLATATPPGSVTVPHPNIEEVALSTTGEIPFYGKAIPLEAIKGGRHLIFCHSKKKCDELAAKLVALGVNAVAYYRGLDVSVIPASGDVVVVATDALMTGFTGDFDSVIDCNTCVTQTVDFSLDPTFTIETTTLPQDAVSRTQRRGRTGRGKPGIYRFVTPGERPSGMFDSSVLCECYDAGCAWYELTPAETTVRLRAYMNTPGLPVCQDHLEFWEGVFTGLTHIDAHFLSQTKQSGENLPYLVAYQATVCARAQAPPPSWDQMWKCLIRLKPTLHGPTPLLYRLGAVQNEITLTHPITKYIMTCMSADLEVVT

[14] = tested on: Vero; assay: cells; format: functional, cell-based; details: Chlorocebus sabaeus
[15] = tested on: Vero; assay: cells; format: functional; details: Chlorocebus sabaeus
[16] = A2780 ovarian cancer cell cytotoxicity, dose response, cytotoxicity control, plate reader, dry powder samples (AID 743046); format: functional, cell-based
[17] = inhibitors of PGC1a acetylation in cells, dose response, cell-based, cherry-picked samples (AID 720514); format: functional;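 note: potency may reflect raised or lowered acetylation signal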
[18] = IGROV1 ovarian cancer cell cytotoxicity, dose response, PAX8 inhibitor project, plate reader, dry powder samples (AID 743043); format: functional, cell-based; details: IGROV-1
[19] = target: T1, Estrogen receptor (Homo sapiens, UniProt P03372);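 note: potency for inhibiting coactivator peptide recruitment to the receptor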
T1 sequence (P03372 whole entry): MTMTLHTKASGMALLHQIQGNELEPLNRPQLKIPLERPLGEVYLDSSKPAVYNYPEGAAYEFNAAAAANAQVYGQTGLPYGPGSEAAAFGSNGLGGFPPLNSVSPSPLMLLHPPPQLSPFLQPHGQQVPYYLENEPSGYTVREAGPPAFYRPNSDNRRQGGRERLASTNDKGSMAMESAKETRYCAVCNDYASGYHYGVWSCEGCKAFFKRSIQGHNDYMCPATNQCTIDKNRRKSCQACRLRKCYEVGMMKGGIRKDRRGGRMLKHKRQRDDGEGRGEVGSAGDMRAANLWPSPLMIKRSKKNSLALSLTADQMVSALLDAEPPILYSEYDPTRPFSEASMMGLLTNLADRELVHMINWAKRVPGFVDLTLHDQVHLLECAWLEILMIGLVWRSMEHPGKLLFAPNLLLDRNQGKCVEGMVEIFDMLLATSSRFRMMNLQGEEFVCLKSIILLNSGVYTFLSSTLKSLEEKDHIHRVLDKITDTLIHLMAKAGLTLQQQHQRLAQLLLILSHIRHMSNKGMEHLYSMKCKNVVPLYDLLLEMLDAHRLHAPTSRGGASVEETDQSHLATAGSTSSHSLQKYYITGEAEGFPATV

[20] = target: T2, Estrogen receptor beta (Homo sapiens, UniProt Q92731);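 note: recombinant ER-beta bound to coactivator SRC1 peptide in presence of estradiol agonist; inhibitors block coactivator peptide binding and lower the FRET signal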
T2 sequence (Q92731 whole entry): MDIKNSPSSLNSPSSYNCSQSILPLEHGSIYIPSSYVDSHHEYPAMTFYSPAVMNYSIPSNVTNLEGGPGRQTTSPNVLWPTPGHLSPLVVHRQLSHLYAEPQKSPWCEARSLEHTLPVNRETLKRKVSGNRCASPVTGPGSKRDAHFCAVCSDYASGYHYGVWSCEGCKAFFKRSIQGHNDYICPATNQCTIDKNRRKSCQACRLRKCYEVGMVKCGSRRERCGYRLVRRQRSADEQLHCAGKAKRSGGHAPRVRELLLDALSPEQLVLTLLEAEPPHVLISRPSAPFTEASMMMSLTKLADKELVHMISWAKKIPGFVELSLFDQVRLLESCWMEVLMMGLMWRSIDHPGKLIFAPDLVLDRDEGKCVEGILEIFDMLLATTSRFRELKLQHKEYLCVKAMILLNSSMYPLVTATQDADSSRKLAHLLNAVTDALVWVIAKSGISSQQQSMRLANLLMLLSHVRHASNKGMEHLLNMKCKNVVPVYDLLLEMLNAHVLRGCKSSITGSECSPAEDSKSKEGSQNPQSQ

[21] = target: T2, Estrogen receptor beta; assay: ERβ–SRC-3 coactivator interaction inhibitors, confirmation, orthogonal assay, biochemical, ELISA, streptavidin-HRP readout (AID 1060)
[22] = target: T3, Lysine-specific demethylase 4C (Homo sapiens, UniProt Q9H3R0); assay: GASC-1 (JMJD2C) histone demethylase inhibitors, dose response, biochemical, DELFIA europium, cherry-picked samples (AID 488835); format: functional
T3 sequence (Q9H3R0 whole entry): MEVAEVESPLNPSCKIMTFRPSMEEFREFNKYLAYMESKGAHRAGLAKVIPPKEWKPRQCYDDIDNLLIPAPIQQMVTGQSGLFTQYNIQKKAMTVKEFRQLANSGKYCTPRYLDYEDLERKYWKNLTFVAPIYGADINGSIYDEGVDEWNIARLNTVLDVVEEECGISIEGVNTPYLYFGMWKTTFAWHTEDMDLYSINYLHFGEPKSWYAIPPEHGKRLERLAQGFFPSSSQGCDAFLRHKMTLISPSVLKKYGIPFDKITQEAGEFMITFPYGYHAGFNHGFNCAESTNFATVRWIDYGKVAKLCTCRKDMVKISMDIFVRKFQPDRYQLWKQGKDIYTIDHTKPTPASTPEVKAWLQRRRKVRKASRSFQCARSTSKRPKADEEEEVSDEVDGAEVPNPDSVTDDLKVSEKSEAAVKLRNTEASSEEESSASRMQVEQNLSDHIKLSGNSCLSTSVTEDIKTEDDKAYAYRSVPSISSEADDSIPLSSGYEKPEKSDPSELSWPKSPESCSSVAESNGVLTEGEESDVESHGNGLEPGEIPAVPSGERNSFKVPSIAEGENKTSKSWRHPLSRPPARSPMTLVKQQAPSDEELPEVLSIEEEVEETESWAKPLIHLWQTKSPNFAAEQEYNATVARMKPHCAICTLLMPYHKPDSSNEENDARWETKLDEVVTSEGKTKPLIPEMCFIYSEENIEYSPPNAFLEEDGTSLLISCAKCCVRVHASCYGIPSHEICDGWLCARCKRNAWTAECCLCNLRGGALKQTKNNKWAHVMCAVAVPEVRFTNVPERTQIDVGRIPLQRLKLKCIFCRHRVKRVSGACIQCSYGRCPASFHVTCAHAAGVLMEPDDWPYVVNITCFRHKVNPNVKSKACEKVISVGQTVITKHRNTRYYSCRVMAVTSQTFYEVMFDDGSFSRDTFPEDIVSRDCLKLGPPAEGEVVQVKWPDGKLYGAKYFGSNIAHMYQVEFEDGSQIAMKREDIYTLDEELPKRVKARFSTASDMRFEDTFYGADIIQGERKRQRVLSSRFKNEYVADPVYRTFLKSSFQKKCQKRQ

[23] = target: T4, Apoptotic protease-activating factor 1 (Homo sapiens, UniProt O14727); format: functional
T4 sequence (O14727 whole entry): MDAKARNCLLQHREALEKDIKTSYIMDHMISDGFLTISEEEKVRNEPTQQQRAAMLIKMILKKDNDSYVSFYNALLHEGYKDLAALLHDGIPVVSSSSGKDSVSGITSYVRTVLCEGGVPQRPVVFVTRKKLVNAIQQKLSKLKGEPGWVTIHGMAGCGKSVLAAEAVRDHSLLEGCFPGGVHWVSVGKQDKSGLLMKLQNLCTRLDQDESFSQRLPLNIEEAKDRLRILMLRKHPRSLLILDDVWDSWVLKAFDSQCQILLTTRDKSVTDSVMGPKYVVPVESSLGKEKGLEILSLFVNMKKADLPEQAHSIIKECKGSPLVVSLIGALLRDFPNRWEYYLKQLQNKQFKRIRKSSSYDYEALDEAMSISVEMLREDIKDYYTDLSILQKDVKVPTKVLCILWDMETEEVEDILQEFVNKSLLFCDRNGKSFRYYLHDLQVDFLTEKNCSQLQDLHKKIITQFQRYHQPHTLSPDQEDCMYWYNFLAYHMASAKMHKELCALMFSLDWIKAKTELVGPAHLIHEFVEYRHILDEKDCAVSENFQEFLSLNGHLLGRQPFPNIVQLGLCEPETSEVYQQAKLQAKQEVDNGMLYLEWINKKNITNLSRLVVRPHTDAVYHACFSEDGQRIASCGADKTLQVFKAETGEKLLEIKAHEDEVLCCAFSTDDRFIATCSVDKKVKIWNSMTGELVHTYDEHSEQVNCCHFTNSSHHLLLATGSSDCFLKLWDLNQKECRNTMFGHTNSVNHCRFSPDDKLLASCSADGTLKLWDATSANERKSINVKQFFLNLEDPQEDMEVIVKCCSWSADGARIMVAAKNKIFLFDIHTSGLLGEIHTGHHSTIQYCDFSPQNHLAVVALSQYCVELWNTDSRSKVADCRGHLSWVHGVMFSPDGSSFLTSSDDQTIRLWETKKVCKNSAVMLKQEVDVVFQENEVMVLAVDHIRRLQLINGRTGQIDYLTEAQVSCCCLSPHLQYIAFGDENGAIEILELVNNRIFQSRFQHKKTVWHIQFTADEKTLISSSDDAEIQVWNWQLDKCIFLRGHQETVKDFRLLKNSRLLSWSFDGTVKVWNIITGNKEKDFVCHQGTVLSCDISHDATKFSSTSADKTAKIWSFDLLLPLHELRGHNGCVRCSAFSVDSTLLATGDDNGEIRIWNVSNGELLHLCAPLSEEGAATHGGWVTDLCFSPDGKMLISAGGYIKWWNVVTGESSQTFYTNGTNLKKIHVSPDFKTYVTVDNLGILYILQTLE

[24] = target: T5, Probable nicotinate-nucleotide adenylyltransferase (Staphylococcus aureus (strain N315), UniProt P65502); format: functional, Staphylococcus aureus subsp. aureus N315;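 for IC50 Mean: confirmatory dose-response retesting of NadD inhibitor hits first found in an ultra-high-throughput screen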
T5 sequence (P65502 whole entry): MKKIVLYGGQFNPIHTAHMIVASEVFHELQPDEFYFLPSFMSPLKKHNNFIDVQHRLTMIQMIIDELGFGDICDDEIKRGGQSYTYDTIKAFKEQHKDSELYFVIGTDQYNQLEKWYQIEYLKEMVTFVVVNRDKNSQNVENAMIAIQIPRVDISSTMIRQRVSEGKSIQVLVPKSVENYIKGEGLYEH

[25] = target: T5, Probable nicotinate-nucleotide adenylyltransferase; format: functional, Staphylococcus aureus subsp. aureus N315; details: read-out: IC50_Mean
[26] = target: T6, Sentrin-specific protease 8 (Homo sapiens, UniProt Q96LD8); format: functional
T6 sequence (Q96LD8 whole entry): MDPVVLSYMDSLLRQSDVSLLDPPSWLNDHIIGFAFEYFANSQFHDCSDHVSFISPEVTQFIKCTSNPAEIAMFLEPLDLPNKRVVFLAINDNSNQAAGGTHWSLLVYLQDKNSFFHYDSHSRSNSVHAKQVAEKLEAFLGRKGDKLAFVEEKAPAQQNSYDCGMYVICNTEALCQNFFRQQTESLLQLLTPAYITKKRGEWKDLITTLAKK

[27] = target: T6, Sentrin-specific protease 8; format: functional; remark: listed apart in the source

Paired box protein Pax-8, sequence (Q06710 whole entry): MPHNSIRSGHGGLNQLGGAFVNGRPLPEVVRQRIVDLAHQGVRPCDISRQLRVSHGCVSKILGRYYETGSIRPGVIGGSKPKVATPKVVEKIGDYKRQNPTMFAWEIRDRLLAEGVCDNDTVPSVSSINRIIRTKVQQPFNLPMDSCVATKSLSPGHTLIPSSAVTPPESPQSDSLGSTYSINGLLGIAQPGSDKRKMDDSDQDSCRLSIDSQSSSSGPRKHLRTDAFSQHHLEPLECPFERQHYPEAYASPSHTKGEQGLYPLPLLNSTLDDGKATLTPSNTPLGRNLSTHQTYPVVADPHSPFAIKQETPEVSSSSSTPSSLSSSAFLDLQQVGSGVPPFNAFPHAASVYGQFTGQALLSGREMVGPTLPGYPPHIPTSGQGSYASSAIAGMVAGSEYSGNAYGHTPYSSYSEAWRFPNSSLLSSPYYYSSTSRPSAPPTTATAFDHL

SMILES: CC(C)CC#Cc1ccc2c(c1)O[C@@H](CN(C)Cc1ccncc1)[C@H](C)CN([C@H](C)CO)S2(=O)=O
- AC50 [1]: 4.41 µM (active)
- AC50 [2]: 48.9 µM (active)
- AC50 [3]: 40.7 µM (active)
- AC50 [4]: 32.6 µM (active)

SMILES: O=C(CSCc1ccccc1)NNC(=S)Nc1cccc(Cl)c1Cl
- IC50 [5]: > 122 µM (inactive)

SMILES: COc1ccc(NC(=O)C2Cc3c(-c4ccc5c(c4)OCO5)ccnc3O2)cc1OC (stereo not given)
- IC50 [6]: 8.73 µM (active)

SMILES: Cc1c(N)cccc1C(F)(F)F
- IC50 [7]: > 33.3 µM (inactive)
- IC50 [8]: > 40 µM (inactive)
- IC50 [9]: > 40 µM (inactive)

SMILES: COc1cc(/C=N/NC(=O)c2c(C)nc3ccc(Cl)cn23)cc(OC)c1OC
- EC50 [10]: 29 µM (inactive)

SMILES: CCCCOc1ccccc1C(=O)NNC(=S)NC(=O)c1ccccc1[N+](=O)[O-]
- EC50 [11]: > 150 µM (inactive)
- EC50 [12]: > 38 µM (not active)
- IC50 [13]: 12.2 µM (not active)
- IC50 [14]: > 12.5 µM (active)
- CC50 [15]: 15.8 µM (active)
- IC50 [5]: 20.8 µM (inactive)

SMILES: Fc1cccc(CN2C[C@@H]3N[C@H](C2)[C@@H]3c2ccc(-c3ccccc3)cc2)c1
- AC50 [16]: 15.1 µM (active)
- AC50 [17]: 7.52 µM (active)
- AC50 [3]: 31 µM (active)
- AC50 [18]: 27.7 µM (active)
- AC50 [4]: 39.9 µM (active)

SMILES: COc1ccc2c(c1)c(=O)oc1cc3oc(C)c(C)c3cc12
- IC50 [19]: 6.9 µM (active)
- IC50 [20]: 12.6 µM (active)
- IC50 [21]: 0.205 µM (not active)

SMILES: Cc1[nH][nH]c(=O)c1C(c1c(C)[nH][nH]c1=O)c1cn(Cc2cccc3ccccc23)c2ccccc12
- AC50 [22]: 11.4 µM (active)
- IC50 [23]: 19.3 µM (active)
- IC50 [24]: 6.89 µM (active)
- IC50 [25]: 14.7 µM (active)
- IC50 [26]: 3.36 µM (active)
- IC50 [27]: 5.32 µM (active)
